Measurements from patent US20230248626A1, “Compositions Comprising (Bio)-Alkanediols” (Symrise AG, priority 0001, published 2023).
Like-named read-outs stand apart in the source and are kept apart here. Blank lines part the entries; values can stand above or below the molecule they belong to.

What was measured:
[1] = tested on: reactive oxygen species (ROS) on ex vivo skin; test: DCF assay, ROS score on ex vivo skin, aqueous/alcoholic (ethanolic) test system; assay type: cell-based; conditions: vehicle (EtOH/H2O) plus alkanediol only
Description: A dichlorofluorescein test (DCF) assay was performed in order to determine the amount of reactive oxygen species (ROS) on ex vivo skin treated with different test samples in a lipophilic or an aqueous/alcoholic system as described below.
DCF assay—assay principle: Ex vivo skin was incubated with 2′,7′-dichlorodihydrofluorescein diacetate at 37° C., 5% CO2. After PBS washing, samples were exposed or not to cumene hydroperoxide. Immediately after exposure, ex vivo skin samples were frozen in liquid nitrogen and 5 μm cryostat sections were made and fixed with acetone to allow the visualisation of fluorescence generated by ROS in cells of the reconstructed skins. The resulting fluorescence was measured at EX/EM 504/524 nm. Green fluorescence was quantified in ex vivo skin using ImageJ software. The depth of immunostaining was measured as follows: green DCFH-DE positive cells were automatically detected using Histolab software and the distance between dermal epidermal junction and the deepest positive cells were measured in each condition. Means were compared using a student's test. […]
The image acquisition was performed by using Olympus BX51 microscope and Olympus DP70 camera. For each skin sample two skin sections have been taken and the related fluorescent images acquired and analyzed. Thus, for each test condition, 12 images have been acquired and analyzed (i.e. 12 data). […]

human sebaceous glands = test: Sebum production of micro-dissected, cultured human sebaceous glands (lipids/proteins after six days); assay type: cell-based; design: sebum reduction: concentration or dose not given beside the values; conditions: compared to untreated control; six days; single donor (FIG. 4)
Description: Additional tests were performed with human sebaceous glands in order to verify the modulatory activity of different 1,2-alkanediols and 2,3-alkanediols on sebum secretion. Several microbial species on the skin are lipid dependent and feed on the human sebum (e.g. Corynebacterium, Propionibacterium). Accordingly, sebum reduction can indirectly support the reduction of microorganisms on the skin and in this way also indirectly support e.g. dandruff or acne reduction.
For these experiments sebaceous glands had been micro-dissected and cultured with medium. The medium without any supplement served as untreated control. Medium with 5 μM Capsaicin served as positive control. Additionally, culture medium was supplemented with different concentrations of alkanediols. After six days the sebaceous glands were collected and lipids and proteins quantified. The total lipid amount being representative of sebum production was obtained by normalizing the quantified lipids upon the quantified proteins (i.e. mg of lipids/mg of proteins).

[2] = Sensory evaluation on the backside of the hand (spreading, fatty/greasy skin feel, absorption), untrained panellists; conditions: for Absorption/remaining residue with alkanediol: scale 1 to 5
Description: For evaluating the sensory behaviour, liquid lipophilic components specified in the following table were blended with 1,2-heptanediol or 2,3-heptanediol or a mixture of 1,2-heptanediol and 2,3-heptanediol or 1,2-octanediol or 2,3-octanediol or a mixture of 1,2-octanediol and 2,3-octanediol (formulation) in a ratio of 85:15 and assessed by untrained panellists in comparison to the liquid lipophilic component without addition of the specified alkanediols (placebo).
The test procedure was carried as follows: For evaluating the sensory behaviour of 1,2-alkanediols and/or 2,3-alkanediols in combination with different liquid lipophilic components, oil components specified in the following table were blended with a 1,2-alkanediol or a 2,3-alkanediol or a mixture including a 1,2-alkanediol and a 2,3-alkanediol in a ratio as specified in Table 53 and assessed by untrained panellists in comparison to the liquid lipophilic component without addition of the 1,2-alkanediol or 2,3-alkanediol or the mixture including a 1,2-alkanediol and 2,3-alkanediol (placebo).
Test Procedure: • Hands were pre-washed with liquid soap by following a defined procedure; 30 μl of corresponding sample was applied on the backside of each hand (randomized); • After 30 s the spreading behaviour of the respective formulation on skin was evaluated versus the respective oil component without 1,2-heptanediol on a scale from 1 to 5 (1=low spreading; 5=high spreading); • The samples were distributed with the fingertips of middle and forefinger with 2×5 cycles; • After 2 minutes, the fatty/greasy skin feel was evaluated on a scale from 1 to 5 (1=low fatty/greasy skin feel; 5=high fatty/greasy skin feel); • Furthermore the applicants were asked to assess the absorption, i.e. the impression of amount of remaining residue on the skin on a scale from 1 to 5 (1=low absorption; 5=high absorption).

Aspergillus brasiliensis = test: MIC and Kull synergy index of 1,2-/2,3-alkanediol mixtures; assay type: cell-based
[3] = blend with Argan Oil vs without
[4] = blend with Avocado Oil vs without
[5] = blend with Cacao butter vs without
[6] = blend with Caprylic Capric Triglyceride (neutral oil), rows r50-r56, vs without
[7] = blend with Caprylic Capric Triglyceride (neutral oil), rows r50-r56
[8] = blend with Castor Oil vs without
[9] = blend with Cetearyl Nonanoate, rows r199-r201, vs without
[10] = blend with Cetearyl Nonanoate, rows r199-r201
[11] = blend with Coconut Oil vs without
[12] = blend with Grapeseed Oil vs without
[13] = blend with Helianthus Annuus (Sunflower) Seed Oil vs without
[14] = blend with Helianthus Annuus (Sunflower) Seed Oil
[15] = blend with Octocrylene (Neo Heliopan 303), vs without
[16] = blend with Octocrylene (Neo Heliopan 303)
[17] = blend with Olive Oil vs without
[18] = single 2,3-alkanediol, read-out: MIC Component B

Absorption/remaining residue Delta [2, 3]: 1 | Absorption/remaining residue with alkanediol ([2]; blend with Argan Oil): 2.8 | Absorption/remaining residue Delta [2, 4]: 1.2 | Absorption/remaining residue with alkanediol ([2]; blend with Avocado Oil): 2.6 | Absorption/remaining residue Delta ([2]; blend with Butyrospermum Parkii (Shea) Butter vs without): 1.5 | Absorption/remaining residue with alkanediol ([2]; blend with Butyrospermum Parkii (Shea) Butter): 2.7 | Absorption/remaining residue Delta [2, 5]: 0 | Absorption/remaining residue with alkanediol ([2]; blend with Cacao butter): 3.6 | Absorption/remaining residue Delta [2, 6]: 0.6 | Absorption/remaining residue with alkanediol [2, 7]: 2.7 | Absorption/remaining residue Delta [2, 8]: 0.4 | Absorption/remaining residue with alkanediol ([2]; blend with Castor Oil): 4 | Absorption/remaining residue Delta ([2]; blend with Cetearyl Nonanoate (SymMollient S), row r161, vs without): 1.2 | Absorption/remaining residue with alkanediol ([2]; blend with Cetearyl Nonanoate (SymMollient S), row r161): 2 | Absorption/remaining residue Delta [2, 9]: 1.6 | Absorption/remaining residue with alkanediol [2, 10]: 3.2 | Absorption/remaining residue Delta ([2]; blend with Chlorella oil (biotech) vs without): 0.2 | Absorption/remaining residue with alkanediol ([2]; blend with Chlorella oil (biotech)): 3 | Absorption/remaining residue Delta [2, 11]: 1.4 | Absorption/remaining residue with alkanediol ([2]; blend with Coconut Oil): 2 | Absorption/remaining residue Delta ([2]; blend with Ethylhexyl Methoxycinnamate (Neo Heliopan AV) vs without): 0.5 | Absorption/remaining residue with alkanediol ([2]; blend with Ethylhexyl Methoxycinnamate (Neo Heliopan AV)): 3 | Absorption/remaining residue Delta ([2]; blend with Ethylhexyl Salicylate (Neo Heliopan OS) vs without): 1.3 | Absorption/remaining residue with alkanediol ([2]; blend with Ethylhexyl Salicylate (Neo Heliopan OS)): 2.2 | Absorption/remaining residue Delta [2, 12]: 0.2 | Absorption/remaining residue with alkanediol ([2]; blend with Grapeseed Oil): 2.8 | Absorption/remaining residue Delta [2, 13]: 1.3 | Absorption/remaining residue with alkanediol [2, 14]: 2 | Absorption/remaining residue Delta ([2]; blend with Hexyldecanol (Eutanol G) vs without): 0.2 | Absorption/remaining residue with alkanediol ([2]; blend with Hexyldecanol (Eutanol G)): 2.7 | Absorption/remaining residue Delta ([2]; blend with Homosalate (Neo Heliopan HMS) vs without): 0.3 | Absorption/remaining residue with alkanediol ([2]; blend with Homosalate (Neo Heliopan HMS)): 2.5 | Absorption/remaining residue Delta ([2]; blend with Isoamyl p-Methoxycinnamate (Neo Heliopan E 1000) vs without): 1.7 | Absorption/remaining residue with alkanediol ([2]; blend with Isoamyl p-Methoxycinnamate (Neo Heliopan E 1000)): 2.5 | Absorption/remaining residue Delta ([2]; blend with Microalgae oil vs without): 1.2 | Absorption/remaining residue with alkanediol ([2]; blend with Microalgae oil): 2.5 | Absorption/remaining residue Delta ([2]; blend with Octocrylene (Neo Heliopan 303), row r184 (UV filter), vs without): 1.3 | Absorption/remaining residue with alkanediol ([2]; blend with Octocrylene (Neo Heliopan 303), row r184 (UV filter)): 2.7 | Absorption/remaining residue Delta [2, 15]: 0.5 | Absorption/remaining residue with alkanediol [2, 16]: 3.5 | Absorption/remaining residue Delta [2, 17]: 1.6 | Absorption/remaining residue with alkanediol ([2]; blend with Olive Oil): 2.4 | Absorption/remaining residue Delta ([2]; blend with Propanediol Dicaprylate/Dicaprate (Symollient PDCC) vs without): 0.1 | Absorption/remaining residue with alkanediol ([2]; blend with Propanediol Dicaprylate/Dicaprate (Symollient PDCC)): 2.4 | Absorption/remaining residue Delta ([2]; blend with Prunus Amygdalus Dulcis (Sweet Almond) Oil vs without): 1.5 | Absorption/remaining residue with alkanediol ([2]; blend with Prunus Amygdalus Dulcis (Sweet Almond) Oil): 2.2 | Absorption/remaining residue Delta ([2]; blend with Simmondsia Chinensis (Jojoba) Seed Oil vs without): 1.2 | Absorption/remaining residue with alkanediol ([2]; blend with Simmondsia Chinensis (Jojoba) Seed Oil): 2.5 | MIC (Aspergillus brasiliensis; single 1,2-alkanediol, read-out: MIC Component A): 5000 µg/mL
Compound: CCCCCC(O)CO (centres unmarked) [1,2-heptanediol]
antioxidative efficacy without antioxidant (in words) [1]: do not have an antioxidative efficacy | sebum reduction (human sebaceous glands): 22%

Absorption/remaining residue Delta [2, 3]: 1.4 | Absorption/remaining residue with alkanediol ([2]; blend with Argan Oil): 2.4 | Absorption/remaining residue Delta [2, 4]: 1.4 | Absorption/remaining residue with alkanediol ([2]; blend with Avocado Oil): 2.4 | Absorption/remaining residue Delta [2, 5]: 0.4 | Absorption/remaining residue with alkanediol ([2]; blend with Cacao butter): 3.2 | Absorption/remaining residue Delta [2, 6]: 0.3 | Absorption/remaining residue with alkanediol [2, 7]: 3 | Absorption/remaining residue Delta [2, 8]: 0.6 | Absorption/remaining residue with alkanediol ([2]; blend with Castor Oil): 3.8 | Absorption/remaining residue Delta [2, 9]: 1.0 | Absorption/remaining residue with alkanediol [2, 10]: 3.8 | Absorption/remaining residue Delta [2, 11]: 1 | Absorption/remaining residue with alkanediol ([2]; blend with Coconut Oil): 2.4 | Absorption/remaining residue Delta [2, 12]: 0.8 | Absorption/remaining residue with alkanediol ([2]; blend with Grapeseed Oil): 2.2 | Absorption/remaining residue Delta [2, 13]: 1 | Absorption/remaining residue with alkanediol [2, 14]: 2.6 | Absorption/remaining residue Delta [2, 15]: 0.5 | Absorption/remaining residue with alkanediol [2, 16]: 3.5 | Absorption/remaining residue Delta [2, 17]: 2 | Absorption/remaining residue with alkanediol ([2]; blend with Olive Oil): 2 | MIC (Aspergillus brasiliensis; [18]): 7500 µg/mL
Compound: CCCCC(O)C(C)O (centres unmarked) [2,3-heptanediol]
antioxidative efficacy without antioxidant (in words) [1]: do not have an antioxidative efficacy | sebum reduction (human sebaceous glands): 30%

Absorption/remaining residue Delta [2, 3]: 1.6 | Absorption/remaining residue with alkanediol ([2]; blend with Argan Oil): 2.2 | Absorption/remaining residue Delta [2, 4]: 1.4 | Absorption/remaining residue with alkanediol ([2]; blend with Avocado Oil): 2.4 | Absorption/remaining residue Delta [2, 5]: 0.8 | Absorption/remaining residue with alkanediol ([2]; blend with Cacao butter): 2.8 | Absorption/remaining residue Delta [2, 8]: 1.4 | Absorption/remaining residue with alkanediol ([2]; blend with Castor Oil): 3 | Absorption/remaining residue Delta [2, 11]: 1.2 | Absorption/remaining residue with alkanediol ([2]; blend with Coconut Oil): 2.6 | Absorption/remaining residue Delta [2, 12]: 0.2 | Absorption/remaining residue with alkanediol ([2]; blend with Grapeseed Oil): 2.4 | Absorption/remaining residue Delta [2, 13]: 0.4 | Absorption/remaining residue with alkanediol [2, 14]: 3.4 | Absorption/remaining residue Delta [2, 15]: 1.5 | Absorption/remaining residue with alkanediol [2, 16]: 2.5 | Absorption/remaining residue Delta [2, 17]: 1.4 | Absorption/remaining residue with alkanediol ([2]; blend with Olive Oil): 2.6 | MIC (Aspergillus brasiliensis; [18]): 2500 µg/mL
Compound: CCCCCC(O)C(C)O (centres unmarked) [2,3-octanediol]
